Where a name gives a salt, the structure may show the parent alone.
How the values were obtained:
[1] = system: Saccharomyces cerevisiae DSM 70449; assay: MIC test, efficacy versus microbes; type: cell-based; conditions: DSM70449, pH 6.5, Octopirox tested as 5%, Piroctone as 3.98% in butylpolyglycol, read-out: MIC in ppm pH 6.5 (Malassezia Agar)
Protocol: (§1) A compound according to Formula (2), namely 1-hydroxy-4-methyl-6-(2,4,4-trimethyl pentyl)-2(1H)-pyridone (named as Piroctone in the below table), is tested for efficacy versus various microbes. Comparison is made versus Piroctone Olamine (=Octopirox®).

[2] = system: Candida albicans DSM 1386; assay: MIC test, efficacy versus microbes; type: cell-based; conditions: DSM1386, pH 6.5, Octopirox tested as 5%, Piroctone as 3.98% in butylpolyglycol, read-out: MIC in ppm pH 6.5 (Malassezia Agar)
Protocol: as §1

[3] = system: Malassezia globosa ATCC 4889; assay: MIC test, efficacy versus microbes; type: cell-based; conditions: ATCC4889, pH 6.5, Octopirox tested as 5%, Piroctone as 3.98% in butylpolyglycol, read-out: MIC in ppm pH 6.5 (Malassezia Agar)
Protocol: as §1

[4] = system: Malassezia pachydermatis DSM 6172; assay: MIC test, efficacy versus microbes; type: cell-based; conditions: DSM6172, pH 6.5, Octopirox tested as 5%, Piroctone as 3.98% in butylpolyglycol, read-out: MIC in ppm pH 6.5 (Malassezia Agar)
Protocol: as §1

[5] = system: Malassezia furfur DSM 6170; assay: MIC test, efficacy versus microbes; type: cell-based; conditions: DSM6170, pH 6.5, Octopirox tested as 5%, Piroctone as 3.98% in butylpolyglycol, read-out: MIC in ppm pH 6.5 (Malassezia Agar)
Protocol: as §1

[6] = Solubility testing in various solvents; type: physicochemical; conditions: for Solubility: directly after addition and after standing for a week
Protocol: A compound according to Formula (2), namely 1-hydroxy-4-methyl-6-(2,4,4-trimethylpentyl)-2(1H)-pyridone, is tested for solubility in various solvents. A 10% (w/w) solution of this compound is tested. The solubility is tested directly after addition as well as after being left to stand for a week.

various microbes = assay: MIC tests overall, comparison versus Piroctone Olamine; type: cell-based
Protocol: as §1

Question: Which MIC [1] does the source give for Cc1cc(CC(C)CC(C)(C)C)n(O)c(=O)c1 (stereo not shown) [Octopirox, monoethanolamine salt of 1-hydroxy-4-methyl-6-(2,4,4-trimethylpentyl)-2(1H)-pyridone] here?
Answer: 500 µg/mL

Question: What about the MIC [2] of the same compound?
Answer: 500 µg/mL

Question: And the MIC [3]?
Answer: 500 µg/mL

Question: What about the MIC [4] of the same compound?
Answer: 500 µg/mL

Question: What about the MIC [5] of the same compound?
Answer: 500 µg/mL

Question: With Cc1cc(CC(C)CC(C)(C)C)n(O)c(=O)c1 (stereo not shown) [Piroctone, 1-hydroxy-4-methyl-6-(2,4,4-trimethylpentyl)-2(1H)-pyridone] as the compound, how does the “Comments (solubility observation)” value ([6]; 10% (w/w) in 1,3-Dioxolane) read?
Answer: Not soluble.

Question: And the “Comments (solubility observation)” value ([6]; 10% (w/w) in 2-Methyltetrahydrofuran)?
Answer: Not soluble.

Question: What about the “Comments (solubility observation)” value ([6]; 10% (w/w) in 3-Pentanone) of the same compound?
Answer: Not completely soluble, supernatant

Question: And the “Comments (solubility observation)” value ([6]; 10% (w/w) in Acetone (purity >99%))?
Answer: Dissolves to a large extend.

Question: What about the “Comments (solubility observation)” value ([6]; 10% (w/w) in Ethanol) of the same compound?
Answer: Dissolves slowly leading to a clear

Question: What about the “Comments (solubility observation)” value ([6]; 10% (w/w) in Isopropanol) of the same compound?
Answer: Not completely dissolved,

Question: And the “Comments (solubility observation)” value ([6]; 10% (w/w) in Methanol)?
Answer: Soluble. Resulting soltuion is clear.

Question: What about the Solubility ([6]; 10% (w/w) solution in 1,3-Dioxolane) of the same compound?
Answer: no

Question: And the Solubility ([6]; 10% (w/w) solution in 2-Methyltetrahydrofuran)?
Answer: no

Question: What about the Solubility ([6]; 10% (w/w) solution in 3-Pentanone) of the same compound?
Answer: no

Question: And the Solubility ([6]; 10% (w/w) solution in Acetone (purity >99%))?
Answer: no

Question: And the Solubility ([6]; 10% (w/w) solution in Ethanol)?
Answer: excellently and yes

Question: What about the Solubility ([6]; 10% (w/w) solution in Isopropanol) of the same compound?
Answer: no

Question: And the Solubility ([6]; 10% (w/w) solution in Methanol)?
Answer: excellently and yes

Question: What about the Solubility ([6]; 10% (w/w) solution in tert. Butanol (2.5% H2O)) of the same compound?
Answer: no

Question: What about the “Mass efficacy better than Piroctone Olamine” value (various microbes; antimicrobial efficacy per mass) of the same compound?
Answer: around 20%

Question: What about the “Activity in MIC tests compared with Piroctone Olamine” value (various microbes; conclusion from Experiment 2) of the same compound?
Answer: same activity in MIC tests at a lower concentration than Piroctone Olamine
